Measurements from patent US12643882B2, “Inhibitors of human respiratory syncytial virus and metapneumovirus” (priority 2022, dated 2026).
Read-outs that look alike come from different tables or passages of the source.

What was measured:
hMPV-GFP virus = assay: microbe, parasite or virus in culture; type: cell-based, human metapneumovirus
How it was run: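 VERO cells infected with GFP-expressing hMPV at MOI 1.25 were incubated 48 h at 37 °C with compound in 10-point 3-fold dilutions (typically 40,300–2 nM final). GFP-positive cells were counted by imaging. Same-well CellTiter-Glo gave cytotoxicity, and IC50/CC50 came from 4-parameter logistic fits.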

RSV-A2-GFP virus = assay: microbe, parasite or virus in culture; type: cell-based, Human Respiratory Syncytial Virus
How it was run: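 Assay-ready frozen Calu-1 cells at 20,000 cells/mL were infected with recombinant RSV-A2-GFP (MOI 1.2) in DMEM with 2% FBS. Cells were exposed to 10-point 3-fold compound dilutions for 96 h at 37° C. GFP-positive cells were counted by imaging, with same-well CellTiter-Glo for cytotoxicity, and IC50 and CC50 came from 4-parameter logistic fits.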

[1] = VERO cells infected with hMPV-GFP, 48 hrs, GFP-expressing cells counted, read-out: hMPV EC50
[2] = Calu-1 cells infected with RSV-A2-GFP, 96 hrs, GFP-expressing cells counted, read-out: RSV EC50
[3] = human metapneumovirus, Vero, 48 h, read-out: hMPV EC50, VERO cells infected with hMPV-GFP, 48 hrs, GFP-expressing cells counted
[4] = human respiratory syncytial virus, Calu-1, 96 h, read-out: RSV EC50, Calu-1 cells infected with RSV-A2-GFP, 96 hrs, GFP-expressing cells counted
[5] = read-out: hMPV EC50, VERO cells infected with hMPV-GFP, 48 hrs, GFP-expressing cells counted

Row | Structure (SMILES) | EC50 (hMPV-GFP virus; [1]) [nM] | EC50 (RSV-A2-GFP virus; [2]) [nM] | EC50 (hMPV-GFP virus; [3]) [nM] | EC50 (RSV-A2-GFP virus; [4]) [nM] | EC50 (hMPV-GFP virus; [5]) [nM]
1 | Cc1nn(-c2ncccn2)cc1C(=O)N1C[C@@H]2[C@H](C1)[C@H]2Oc1cc(C(C)(C)N)cc(-c2ccc(C(F)(F)F)cc2)n1 [Example 86, ((1R,5S,6s)-6-((4-(2-aminopropan-2-yl)-6-(4-(trifluoromethyl)phenyl)pyridin-2-yl)oxy)-3-azabicyclo[3.1.0]hexan-3-yl)(3-methyl-1-(pyrimidin-2-yl)-1H-pyrazol-4-yl)methanone] | 10 to 100 | < 10 |  |  | 
2 | CC(O)c1nn(-c2ncccn2)cc1C(=O)N1C[C@@H]2C(Oc3cc(C(C)(C)N)cc(-c4ccc(F)c(F)c4)n3)[C@@H]2C1 (single isomer, unassigned; enantiomer 1) [Example 96A] | > 100 | < 10 |  |  | 
3 | Cc1nc(-c2ncccn2)sc1C(=O)N1C[C@@H]2[C@H](C1)[C@H]2Oc1cc(-c2ccc(F)cc2)cc(C(C)(C)N)n1 [Example 115, ((1R,5S,6s)-6-((6-(2-aminopropan-2-yl)-4-(4-fluorophenyl)pyridin-2-yl)oxy)-3-azabicyclo[3.1.0]hexan-3-yl)(4-methyl-2-(pyrimidin-2-yl)thiazol-5-yl)methanone] |  |  | > 100 | < 10 | 
4 | CC(C)(N)c1cc(O[C@H]2[C@@H]3CN(C(=O)c4cnc(-c5ncccn5)s4)C[C@@H]32)nc(-c2ccc(F)cc2)c1 [Example 9, ((1R,5S,6s)-6-((4-(2-aminopropan-2-yl)-6-(4-fluorophenyl)pyridin-2-yl)oxy)-3-azabicyclo[3.1.0]hexan-3-yl)(2-(pyrimidin-2-yl)thiazol-5-yl)methanone] |  |  | > 100 | < 10 | 
5 | CC(C)(N)c1cc(O[C@H]2[C@@H]3CN(C(=O)c4sc(-c5ncccn5)nc4C(F)(F)F)C[C@@H]32)nc(-c2ccc(F)cc2)c1 [Example 11, ((1R,5S,6s)-6-((4-(2-aminopropan-2-yl)-6-(4-fluorophenyl)pyridin-2-yl)oxy)-3-azabicyclo[3.1.0]hexan-3-yl)(2-(pyrimidin-2-yl)-4-(trifluoromethyl)thiazol-5-yl)methanone] | > 100 | < 10 |  |  | 
6 | Cc1ccc(-c2cc(C(C)(C)N)cc(O[C@H]3[C@@H]4CN(C(=O)c5sc(-c6ncccn6)nc5C)C[C@@H]43)n2)c(C)c1 [Example 33, ((1R,5S,6s)-6-((4-(2-aminopropan-2-yl)-6-(2,4-dimethylphenyl)pyridin-2-yl)oxy)-3-azabicyclo[3.1.0]hexan-3-yl)(4-methyl-2-(pyrimidin-2-yl)thiazol-5-yl)methanone] | > 100 | < 10 |  |  | 
7 | Cc1nn(-c2ncccn2)cc1C(=O)N1C[C@H]2[C@H](Oc3cc(C(C)(C)N)cc(-c4ccc(F)c(F)c4)n3)[C@@]2(C)C1 (single isomer, unassigned; enantiomer 1) [Example 106A] |  |  |  | < 10 | > 100
8 | Cn1nc(-c2ncccn2)cc1C(=O)N1C[C@H]2[C@H](Oc3cc(C(C)(C)N)cc(-c4ccc(F)c(F)c4)n3)[C@@]2(C)C1 (single isomer, unassigned; enantiomer 1) [Example 105A] |  |  |  | < 10 | > 100
9 | Cc1nc(-c2ncccn2)sc1C(=O)N1C[C@@H]2[C@H](C1)[C@H]2Nc1cc(C(C)(C)N)cc(-c2ccc(F)cc2)n1 [Example 7, ((1R,5S,6s)-6-((4-(2-aminopropan-2-yl)-6-(4-fluorophenyl)pyridin-2-yl)amino)-3-azabicyclo[3.1.0]hexan-3-yl)(4-methyl-2-(pyrimidin-2-yl)thiazol-5-yl)methanone] |  |  | > 100 | < 10 | 
10 | Cc1nc(-c2ncccn2)sc1C(=O)N1C[C@@H]2[C@H](C1)[C@H]2Oc1cc(C(C)(C)N)cc(C2=CCC3(CCC3)CC2)n1 [Example 48, ((1R,5S,6s)-6-((4-(2-aminopropan-2-yl)-6-(spiro[3.5]non-6-en-7-yl)pyridin-2-yl)oxy)-3-azabicyclo[3.1.0]hexan-3-yl)(4-methyl-2-(pyrimidin-2-yl)thiazol-5-yl)methanone] | > 100 | < 10 |  |  | 
11 | Cn1nc(-c2ncccn2)cc1C(=O)N1C[C@@H]2[C@H](C1)[C@H]2Oc1cc(C(C)(C)N)cc(-n2ccc3c(F)cccc32)n1 [Example 60, ((1R,5S,6s)-6-((4-(2-aminopropan-2-yl)-6-(4-fluoro-1H-indol-1-yl)pyridin-2-yl)oxy)-3-azabicyclo[3.1.0]hexan-3-yl)(1-methyl-3-(pyrimidin-2-yl)-1H-pyrazol-5-yl)methanone] |  |  | 10 to 100 | < 10 | 
12 | COc1cc(C(F)(F)F)ccc1-c1cc(C(C)(C)N)cc(O[C@H]2[C@@H]3CN(C(=O)c4cn(-c5ncccn5)nc4C)C[C@@H]32)n1 [Example 88, ((1R,5S,6s)-6-((4-(2-aminopropan-2-yl)-6-(2-methoxy-4-(trifluoromethyl)phenyl)pyridin-2-yl)oxy)-3-azabicyclo[3.1.0]hexan-3-yl)(3-methyl-1-(pyrimidin-2-yl)-1H-pyrazol-4-yl)methanone] | > 100 | < 10 |  |  | 
13 | CC(C)(N)c1cc(O[C@H]2[C@@H]3CN(C(=O)c4cn(-c5ncccn5)nc4C(F)(F)F)C[C@@H]32)nc(-c2ccc(C(F)(F)F)cc2)c1 [Example 93, ((1R,5S,6s)-6-((4-(2-aminopropan-2-yl)-6-(4-(trifluoromethyl)phenyl)pyridin-2-yl)oxy)-3-azabicyclo[3.1.0]hexan-3-yl)(1-(pyrimidin-2-yl)-3-(trifluoromethyl)-1H-pyrazol-4-yl)methanone] | > 100 | < 10 |  |  | 
14 | Cc1nn(-c2ncccn2)cc1C(=O)N1C[C@H]2[C@H](Oc3cc(C(C)(C)N)cc(-c4ccc(C(F)(F)F)cc4)n3)[C@@]2(C)C1 (single isomer, unassigned; enantiomer 1) [Example 111A] |  |  |  | < 10 | > 100
15 | CCc1nc(-c2ncccn2)sc1C(=O)N1C[C@@H]2[C@H]1C[C@H]2Oc1cc(C(C)(C)N)cc(-c2ccc(F)cc2)n1 (single isomer, unassigned; enantiomer 2) [Example 3] |  |  | > 100 | < 10 | 
16 | Cc1ccc(-c2cc(C(C)(C)N)cc(O[C@H]3[C@@H]4CN(C(=O)c5sc(-c6ncccn6)nc5C)C[C@@H]43)n2)c(F)c1 [Example 38, ((1R,5S,6s)-6-((4-(2-aminopropan-2-yl)-6-(2-fluoro-4-methylphenyl)pyridin-2-yl)oxy)-3-azabicyclo[3.1.0]hexan-3-yl)(4-methyl-2-(pyrimidin-2-yl)thiazol-5-yl)methanone] | 10 to 100 | < 10 |  |  | 
17 | Cc1nn(-c2ncccn2)cc1C(=O)N1C[C@@H]2[C@H](C1)[C@H]2Oc1cc(C(C)(C)N)c(F)c(-c2ccc(F)cc2)n1 [Example 119, ((1R,5S,6s)-6-((4-(2-aminopropan-2-yl)-5-fluoro-6-(4-fluorophenyl)pyridin-2-yl)oxy)-3-azabicyclo[3.1.0]hexan-3-yl)(3-methyl-1-(pyrimidin-2-yl)-1H-pyrazol-4-yl)methanone] |  |  | > 100 | < 10 | 
18 | Cc1nc(-c2ncccn2)sc1C(=O)N1C[C@@H]2[C@H](C1)[C@H]2Oc1cc(C(C)(C)N)cc(-c2cc(F)c(F)c(F)c2)n1 [Example 13, ((1R,5S,6s)-6-((4-(2-aminopropan-2-yl)-6-(3,4,5-trifluorophenyl)pyridin-2-yl)oxy)-3-azabicyclo[3.1.0]hexan-3-yl)(4-methyl-2-(pyrimidin-2-yl)thiazol-5-yl)methanone] |  |  | 10 to 100 | < 10 | 
19 | CC(C)(N)c1cc(O[C@H]2[C@@H]3CN(C(=O)c4cn(-c5ncccn5)nc4C(F)F)C[C@@H]32)nc(-c2ccc(F)c(F)c2)c1 [Example 91, ((1R,5S,6s)-6-((4-(2-aminopropan-2-yl)-6-(3,4-difluorophenyl)pyridin-2-yl)oxy)-3-azabicyclo[3.1.0]hexan-3-yl)(3-(difluoromethyl)-1-(pyrimidin-2-yl)-1H-pyrazol-4-yl)methanone] | > 100 | < 10 |  |  | 
20 | Cn1nc(-c2ncccn2)cc1C(=O)N1C[C@@H]2[C@H]1C[C@H]2Oc1cc(C(C)(C)N)cc(-c2ccc(F)cc2)n1 (single isomer, unassigned; enantiomer 2) [Example 4] |  |  | > 100 | 10 to 100 | 
21 | Cn1nc(-c2ncccn2)cc1C(=O)N1C[C@@H]2[C@H](C1)[C@H]2Oc1cc(C(C)(C)N)cc(-c2ccc(F)c(Cl)c2)n1 [Example 56, ((1R,5S,6s)-6-((4-(2-aminopropan-2-yl)-6-(3-chloro-4-fluorophenyl)pyridin-2-yl)oxy)-3-azabicyclo[3.1.0]hexan-3-yl)(1-methyl-3-(pyrimidin-2-yl)-1H-pyrazol-5-yl)methanone] | > 100 | < 10 |  |  | 
22 | Cc1nn(-c2ncccn2)cc1C(=O)N1C[C@@H]2[C@H](C1)[C@H]2Oc1cc(C(C)(C)N)cc(-c2cc(F)c(F)cc2F)n1 [Example 81, ((1R,5S,6s)-6-((4-(2-aminopropan-2-yl)-6-(2,4,5-trifluorophenyl)pyridin-2-yl)oxy)-3-azabicyclo[3.1.0]hexan-3-yl)(3-methyl-1-(pyrimidin-2-yl)-1H-pyrazol-4-yl)methanone] | 10 to 100 | < 10 |  |  | 
23 | CC(C)(N)c1cc(O[C@H]2[C@@H]3CN(C(=O)c4cn(-c5ncccn5)nc4C4CC4)C[C@@H]32)nc(-c2ccc(F)cc2)c1 [Example 65, ((1R,5S,6s)-6-((4-(2-aminopropan-2-yl)-6-(4-fluorophenyl)pyridin-2-yl)oxy)-3-azabicyclo[3.1.0]hexan-3-yl)(3-cyclopropyl-1-(pyrimidin-2-yl)-1H-pyrazol-4-yl)methanone] | > 100 | < 10 |  |  | 
